In publication PMC7982406, “Proteinase-Mediated Macrophage Signaling in Psoriatic Arthritis” (Frontiers in Immunology, 2021):
Where a SMILES comes first, the peptide text is derived from it. [ ]: non-standard residue; d: D form. The star is where a group is joined. AMC = Cc1cc(=O)oc2cc(N*)ccc12

What was measured:
[1] = molecular target: proteinase-activated receptor 2 (human (endogenous in HEK-293, THP-1 and primary monocytes/macrophages)) (UniProt P55085)
[2] = molecular target: T1, PAR2 (proteinase-activated receptor 2) (Homo sapiens, UniProt P55085); experiment: calcium signaling (Fluo-4 AM), HEK-293 cells; type: cell-based; settings: antagonist; pre-treatment, then 0.15 µM 2fLI as agonist; 37 °C
T1 construct: gene F2RL1; endogenous full-length receptor in HEK-293 cells; no response to 2fLI in CRISPR PAR2-knockout HEK-293
T1 sequence (P55085 26-397): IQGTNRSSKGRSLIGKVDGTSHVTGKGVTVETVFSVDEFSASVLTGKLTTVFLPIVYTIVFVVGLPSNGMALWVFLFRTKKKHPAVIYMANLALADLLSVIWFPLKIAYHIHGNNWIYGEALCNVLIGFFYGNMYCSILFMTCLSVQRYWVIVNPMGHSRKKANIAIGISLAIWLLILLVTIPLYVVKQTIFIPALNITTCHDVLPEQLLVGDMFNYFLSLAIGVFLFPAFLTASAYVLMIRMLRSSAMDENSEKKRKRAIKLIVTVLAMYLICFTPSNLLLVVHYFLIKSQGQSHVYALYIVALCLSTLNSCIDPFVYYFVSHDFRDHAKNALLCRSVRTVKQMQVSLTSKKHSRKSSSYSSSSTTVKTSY

Tryptase-6 (PRSS33) = molecular target: T2, Tryptase-6 (PRSS33) (Homo sapiens, UniProt Q8NF86); experiment: fluorogenic cleavage, antibody pull-down from synovial fluid; type: biochemical; settings: 37 °C; ex 380 nm, em 460 nm; enzyme captured by plate-immobilized antibody
T2 construct: native active enzyme (~25 kDa) captured by anti-tryptase-6 antibody from patient synovial fluid
T2 sequence (Q8NF86 37-280): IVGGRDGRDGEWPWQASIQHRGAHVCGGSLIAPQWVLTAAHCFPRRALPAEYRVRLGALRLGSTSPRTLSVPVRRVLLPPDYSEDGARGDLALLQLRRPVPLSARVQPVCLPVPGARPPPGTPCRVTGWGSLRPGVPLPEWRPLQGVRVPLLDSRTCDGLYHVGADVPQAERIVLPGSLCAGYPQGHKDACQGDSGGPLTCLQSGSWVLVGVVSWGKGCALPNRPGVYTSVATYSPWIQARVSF

## 2-furoyl-LIGRLO-NH2 (peptide)
[1]
  calcium signaling (Fluo-4 AM) in HEK-293 cells, concentration-effect curve of 2fLI, EC50: 140 nM

## CC(C)(C)c1cc(-c2ccc(F)cc2)nn2cc(C(=O)N3CCNC(=O)C3(C)C)nc12 [I-191]
[2]
  IC50: 2.1 nM

## Cc1cc(=O)oc2cc(NC(=O)[C@H](CCCCN)NC(=O)[C@H](CC(C)C)NC(=O)[C@H](N)C(C)C)ccc12 [VLK-AMC] (H-[dV]-Leu-Lys-{AMC})
Tryptase-6 (PRSS33)
  fluorogenic cleavage, antibody pull-down from synovial fluid: Tryptase-6 activity increased when both substrates were added
